Data taken from PubChem BioAssay (NCI).
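Cultured in 96-well plates, cells were exposed to test compound for 48 hours across five concentrations. Abbreviation: GI50, concentration required for 50% inhibition of growth. TGI is the concentration that stops growth completely.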

Assays:
Assay in all cases: DTP human tumour cell line panel, 48 h
MDA-MB-468 breast = tested on: MDA-MB-468 breast
HT29 colon = tested on: HT29 colon
CCRF-CEM leukemia = tested on: CCRF-CEM leukemia
HCT-116 colon = tested on: HCT-116 colon
IGROV1 ovarian = tested on: IGROV1 ovarian
SNB-75 CNS = tested on: SNB-75 CNS
ACHN renal = tested on: ACHN renal
PC-3 prostate = tested on: PC-3 prostate
786-0 renal = tested on: 786-0 renal
MALME-3M melanoma = tested on: MALME-3M melanoma
SK-MEL-28 melanoma = tested on: SK-MEL-28 melanoma
NCI/ADR-RES ovarian = tested on: NCI/ADR-RES ovarian
KM12 colon = tested on: KM12 colon
RXF 393 renal = tested on: RXF 393 renal
LOX IMVI melanoma = tested on: LOX IMVI melanoma
HCT-15 colon = tested on: HCT-15 colon
T-47D breast = tested on: T-47D breast
NCI-H522 lung = tested on: NCI-H522 lung
SK-MEL-5 melanoma = tested on: SK-MEL-5 melanoma
HCC-2998 colon = tested on: HCC-2998 colon
UACC-257 melanoma = tested on: UACC-257 melanoma
EKVX NSCLC = tested on: EKVX NSCLC
SF-295 CNS = tested on: SF-295 CNS
MCF7 breast = tested on: MCF7 breast
SN12C renal = tested on: SN12C renal
SK-MEL-2 melanoma = tested on: SK-MEL-2 melanoma
HOP-92 NSCLC = tested on: HOP-92 NSCLC
UACC-62 melanoma = tested on: UACC-62 melanoma
SNB-19 CNS = tested on: SNB-19 CNS
A549 NSCLC = tested on: A549 NSCLC
HOP-62 NSCLC = tested on: HOP-62 NSCLC
SR leukemia = tested on: SR leukemia
TK-10 renal = tested on: TK-10 renal
M14 melanoma = tested on: M14 melanoma
K-562 leukemia = tested on: K-562 leukemia
CAKI-1 renal = tested on: CAKI-1 renal
SF-539 CNS = tested on: SF-539 CNS
OVCAR-4 ovarian = tested on: OVCAR-4 ovarian
UO-31 renal = tested on: UO-31 renal
NCI-H23 lung = tested on: NCI-H23 lung
HS 578T breast = tested on: HS 578T breast
MOLT-4 leukemia = tested on: MOLT-4 leukemia
SW-620 colon = tested on: SW-620 colon
DU-145 prostate = tested on: DU-145 prostate
A498 renal = tested on: A498 renal
SK-OV-3 ovarian = tested on: SK-OV-3 ovarian
HL-60(TB) leukemia = tested on: HL-60(TB) leukemia
NCI-H460 lung = tested on: NCI-H460 lung
COLO 205 colon = tested on: COLO 205 colon
OVCAR-3 ovarian = tested on: OVCAR-3 ovarian
BT-549 breast = tested on: BT-549 breast
NCI-H226 lung = tested on: NCI-H226 lung
OVCAR-5 ovarian = tested on: OVCAR-5 ovarian
MDA-MB-231 breast = tested on: MDA-MB-231 breast
MDA-MB-435 = tested on: MDA-MB-435

[2H]C([2H])([2H])Oc1ccc2ncc(C#Cc3cncc(C(=O)Nc4ccc(CN5CCN(C)CC5)c(C(F)(F)F)c4)c3)n2n1
GI50 (MDA-MB-468 breast): 1.2 µM
TGI (MDA-MB-468 breast): 2.95 µM
GI50 (HT29 colon): 0.303 µM
TGI (HT29 colon): 1.41 µM
GI50 (CCRF-CEM leukemia): 0.043 µM
TGI (CCRF-CEM leukemia): 3.74 µM
GI50 (HCT-116 colon): 0.0677 µM
TGI (HCT-116 colon): 1.24 µM
GI50 (IGROV1 ovarian): 0.581 µM
TGI (IGROV1 ovarian): 2.04 µM
GI50 (SNB-75 CNS): 1.92 µM
TGI (SNB-75 CNS): 6.09 µM
GI50 (ACHN renal): 0.574 µM
TGI (ACHN renal): 11.2 µM
GI50 (PC-3 prostate): 0.94 µM
TGI (PC-3 prostate): 2.35 µM
GI50 (786-0 renal): 1.37 µM
TGI (786-0 renal): 2.66 µM
GI50 (MALME-3M melanoma): 0.291 µM
TGI (MALME-3M melanoma): 1.49 µM
GI50 (SK-MEL-28 melanoma): 1.16 µM
TGI (SK-MEL-28 melanoma): 2.41 µM
GI50 (NCI/ADR-RES ovarian): 1.18 µM
TGI (NCI/ADR-RES ovarian): 2.65 µM
GI50 (KM12 colon): 0.00942 µM
TGI (KM12 colon): 1.35 µM
GI50 (RXF 393 renal): 1.15 µM
TGI (RXF 393 renal): 2.5 µM
GI50 (LOX IMVI melanoma): 0.446 µM
TGI (LOX IMVI melanoma): 1.8 µM
GI50 (HCT-15 colon): 0.387 µM
TGI (HCT-15 colon): 1.64 µM
GI50 (T-47D breast): 12.1 µM
TGI (T-47D breast): 57.3 µM
GI50 (NCI-H522 lung): 1.14 µM
TGI (NCI-H522 lung): 7.23 µM
GI50 (SK-MEL-5 melanoma): 2.27 µM
TGI (SK-MEL-5 melanoma): 6.89 µM
GI50 (HCC-2998 colon): 1.03 µM
TGI (HCC-2998 colon): 2.7 µM
GI50 (UACC-257 melanoma): 0.995 µM
TGI (UACC-257 melanoma): 3.73 µM
GI50 (EKVX NSCLC): 0.606 µM
TGI (EKVX NSCLC): 2.22 µM
GI50 (SF-295 CNS): 0.839 µM
TGI (SF-295 CNS): 7.23 µM
GI50 (MCF7 breast): 0.0503 µM
TGI (MCF7 breast): 1.46 µM
GI50 (SN12C renal): 0.498 µM
TGI (SN12C renal): 1.81 µM
GI50 (SK-MEL-2 melanoma): 1.09 µM
TGI (SK-MEL-2 melanoma): 6.34 µM
GI50 (HOP-92 NSCLC): 0.173 µM
TGI (HOP-92 NSCLC): 0.833 µM
GI50 (UACC-62 melanoma): 5.27 µM
TGI (UACC-62 melanoma): 21 µM
GI50 (SNB-19 CNS): 1.39 µM
TGI (SNB-19 CNS): 2.64 µM
GI50 (A549 NSCLC): 0.742 µM
TGI (A549 NSCLC): 2.37 µM
GI50 (HOP-62 NSCLC): 0.656 µM
TGI (HOP-62 NSCLC): 4.54 µM
GI50 (SR leukemia): 0.0606 µM
TGI (SR leukemia): 94.2 µM
GI50 (TK-10 renal): 3.17 µM
TGI (TK-10 renal): 7.63 µM
GI50 (M14 melanoma): 0.377 µM
TGI (M14 melanoma): 1.62 µM
GI50 (K-562 leukemia): 0.00942 µM
TGI (K-562 leukemia): 94.2 µM
GI50 (CAKI-1 renal): 0.619 µM
TGI (CAKI-1 renal): 4.54 µM
GI50 (SF-539 CNS): 0.112 µM
TGI (SF-539 CNS): 1.06 µM
GI50 (OVCAR-4 ovarian): 1 µM
TGI (OVCAR-4 ovarian): 2.63 µM
GI50 (UO-31 renal): 1.03 µM
TGI (UO-31 renal): 2.22 µM
GI50 (NCI-H23 lung): 0.35 µM
TGI (NCI-H23 lung): 1.63 µM
GI50 (HS 578T breast): 0.444 µM
TGI (HS 578T breast): 6.36 µM
GI50 (MOLT-4 leukemia): 0.0668 µM
TGI (MOLT-4 leukemia): 2.02 µM
GI50 (SW-620 colon): 0.167 µM
TGI (SW-620 colon): 1.18 µM
GI50 (DU-145 prostate): 0.93 µM
TGI (DU-145 prostate): 2.15 µM
GI50 (A498 renal): 8.64 µM
TGI (A498 renal): 27.8 µM
GI50 (SK-OV-3 ovarian): 4.03 µM
TGI (SK-OV-3 ovarian): 18.6 µM
GI50 (HL-60(TB) leukemia): 0.101 µM
TGI (HL-60(TB) leukemia): 1.99 µM
GI50 (NCI-H460 lung): 0.239 µM
TGI (NCI-H460 lung): 1.81 µM
GI50 (COLO 205 colon): 0.238 µM
TGI (COLO 205 colon): 0.719 µM
GI50 (OVCAR-3 ovarian): 1.6 µM
TGI (OVCAR-3 ovarian): 5.83 µM
GI50 (BT-549 breast): 0.833 µM
TGI (BT-549 breast): 10.4 µM
GI50 (NCI-H226 lung): 0.124 µM
TGI (NCI-H226 lung): 2.59 µM
GI50 (OVCAR-5 ovarian): 0.507 µM
TGI (OVCAR-5 ovarian): 1.8 µM
GI50 (MDA-MB-231 breast): 0.278 µM
TGI (MDA-MB-231 breast): 1.53 µM
GI50 (MDA-MB-435): 0.321 µM
TGI (MDA-MB-435): 1.77 µM
